Experimental data as given in patent US12509447B2, “Small molecule compound” (Technoderma Medicines Pte Ltd, priority 2019, dated 2025).

How the values were obtained:
Tyk2 = Tyk2 (Homo sapiens, UniProt P29597); assay: Inhibition of JAK kinase activity, EZ Reader microfluidic phosphorylation of peptide substrate: Tyk2; type: biochemical; conditions: Tyk2 kinase 1 nM; highest final concentration 10 μM, 1:3 serial dilution, 8 points, duplicates
Description: (§1) EZ Reader available from PerkinElmer can be used for detecting the phosphorylation of polypeptide substrates catalyzed by kinases. This device is based on microfluidic separation technology, and can directly detect fluorescence labeled substrates and products. The separation step is achieved in a microfluidic chip by controlling the pressure and electric field intensity. In a kinase experiment, the product conversion rate is generally controlled at 20-30%. This biological assay method is used for identifying the inhibitory effect of the compounds on JAK.
(§2) The compound powder was dissolved in DMSO, sealed and stored in a refrigerator at −20° C. The in-house compound Ref1 was used as a positive control for testing of JAK1, JAK2 and Tyk2, and Ref2 was used as a positive control for testing of JAK3.
(§3) • S2.1. 1M HEPES buffer: 0.5M HEPES free acid and 0.5M HEPES sodium salt are weighed, added into ultrapure water for dissolution, brought to a desired volume, filtered and stored in a refrigerator at 4° C. • S2.2. 40 mM ATP solution: dissolved in a 50 mM HEPES buffer solution, prepared into 40 mM, aliquoted, and cryopreserved in a refrigerator at −20° C. • S2.3. 0.5% Tween 20: 100% Tween 20 was diluted with ultrapure water, and stored in a refrigerator at 4° C. • S2.4. 35% bovine serum albumin: a 35% bovine serum albumin solution is prepared in ultrapure water, aliquoted, and stored in a refrigerator at −20° C. • S2.5. 1M dithiothreitol solution: dithiothreitol is formulated into a 1M solution with ultrapure water, aliquoted, and stored in a refrigerator at −20° C. • S2.6. 0.5 mM Jaktide Peptide substrate solution: it is dissolved in 50 mM HEPES to 0.5 mM, aliquoted, and stored in a refrigerator at −20° C. • S2.7. 0.5 mM IRStide Peptide substrate solution: it is dissolved in 50 mM HEPES to 0.5 mM, aliquoted, and stored in a refrigerator at −20° C. • S2.8. Assay Buffer: 20 mM HEPES buffer, pH 7.4, 10 mM magnesium chloride, 0.01% bovine serum albumin BSA, 0.0005% Tween-20, and a 1 mM dithiothreitol solution. • S2.9. Stop Buffer: 180 mM HEPES buffer, 20 mM ethylenediamine tetraacetic acid (EDTA), and 0.2% Coating Reagent 3. • S2.10. Separation Buffer: 100 mM HEPES buffer, 10 mM EDTA, 0.0005% Tween 20, 0.1% Coating Reagent 3, and 1% dimethyl sulfoxide. 3. Experimental Procedures • S3.1. Preparation of compound plate
(§4) The compound is dissolved in dimethyl sulfoxide to 10 mM, a certain volume is taken and diluted to 0.6 mM, 10 μl of the diluted 0.6 mM solution is taken and added into a 384 microplate or 1:3 serial dilution, with a total of 8 concentration points. • S3.2. Compound layout
(§5) • positive control (HPE1): Ref1, final concentration: 10 μM • positive control (HPE1): Ref2, final concentration: 10 μM • negative control (ZPE): DMSO, with a final concentration of 1.6% • Compound: the highest final concentration at 10 μM, 1:3 serial dilution, with 8 concentration points and in duplicates. 4. Experimental operation steps • S4.1. the experimental plate was added with 250 nl of the compound per well with ECHO, and centrifuged at 1,000 rpm for 1 minute; • S4.2. the precipitate was added with 5 μl of the experimental buffer, and shaken for several seconds to fully dissolve the compound; • S4.3. the solution was added with 5 μl of a 3× substrate solution, as well as 5 μl of a 3× kinase solution, and centrifuged at 800 rpm for 1 minute; • S4.4. The final concentrations of JAK1, JAK2, JAK3 and Tyk2 kinases in the reaction system are 20, 1, 1 and 1 nM, respectively. • S4.5. the reaction system is incubated at room temperature, wherein the incubation time of each kinase is different, and there are differences in incubation time of different batches of kinases. • S4.6. When the reaction reaches 20%-30%, the reaction system is added with 15 μl of the stop buffer to terminate the reaction, and centrifuged at 1,000 rpm for 2 minutes. • S4.7. The precipitate was placed onto a EZ Reader for plate reading. • S4.8. […]

JAK1 = JAK1 (Homo sapiens, UniProt P23458); assay: Inhibition of JAK kinase activity, EZ Reader microfluidic phosphorylation of peptide substrate: JAK1; type: biochemical; conditions: JAK1 kinase 20 nM; highest final concentration 10 μM, 1:3 serial dilution, 8 points, duplicates
Description: as §1, §2, §3, §4, §5

Chain of Tyk2 (P29597 whole entry): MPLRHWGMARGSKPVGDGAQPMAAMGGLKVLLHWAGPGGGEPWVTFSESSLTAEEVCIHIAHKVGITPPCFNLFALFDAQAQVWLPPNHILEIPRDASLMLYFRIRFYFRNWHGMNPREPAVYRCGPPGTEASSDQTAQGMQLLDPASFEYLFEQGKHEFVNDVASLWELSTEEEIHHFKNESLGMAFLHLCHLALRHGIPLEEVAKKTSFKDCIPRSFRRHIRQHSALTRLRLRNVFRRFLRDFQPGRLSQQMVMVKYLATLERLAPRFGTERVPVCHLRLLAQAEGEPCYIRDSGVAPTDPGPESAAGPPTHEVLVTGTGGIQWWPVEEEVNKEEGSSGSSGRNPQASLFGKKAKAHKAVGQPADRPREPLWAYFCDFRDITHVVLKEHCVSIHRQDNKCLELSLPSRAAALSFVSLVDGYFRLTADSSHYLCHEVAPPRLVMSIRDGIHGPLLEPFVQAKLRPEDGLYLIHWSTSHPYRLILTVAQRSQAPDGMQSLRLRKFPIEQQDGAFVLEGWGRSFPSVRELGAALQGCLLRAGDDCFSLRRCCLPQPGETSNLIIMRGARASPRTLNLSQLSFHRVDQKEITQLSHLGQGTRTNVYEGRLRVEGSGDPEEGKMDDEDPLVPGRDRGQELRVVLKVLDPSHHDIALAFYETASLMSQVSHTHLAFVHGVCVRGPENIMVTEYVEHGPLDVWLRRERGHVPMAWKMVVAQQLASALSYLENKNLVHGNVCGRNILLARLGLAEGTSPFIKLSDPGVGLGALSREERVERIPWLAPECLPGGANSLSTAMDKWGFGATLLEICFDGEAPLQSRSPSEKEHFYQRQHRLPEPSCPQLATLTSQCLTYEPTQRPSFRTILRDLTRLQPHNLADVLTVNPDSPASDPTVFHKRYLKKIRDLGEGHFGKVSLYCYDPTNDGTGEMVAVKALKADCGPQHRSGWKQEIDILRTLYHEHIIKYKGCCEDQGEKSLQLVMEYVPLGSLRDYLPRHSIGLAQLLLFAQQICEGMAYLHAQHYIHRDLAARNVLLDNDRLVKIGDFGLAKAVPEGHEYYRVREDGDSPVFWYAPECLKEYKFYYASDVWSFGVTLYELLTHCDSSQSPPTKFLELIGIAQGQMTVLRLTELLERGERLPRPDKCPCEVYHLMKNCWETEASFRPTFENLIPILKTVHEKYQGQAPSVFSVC
Chain of JAK1 (P23458 whole entry): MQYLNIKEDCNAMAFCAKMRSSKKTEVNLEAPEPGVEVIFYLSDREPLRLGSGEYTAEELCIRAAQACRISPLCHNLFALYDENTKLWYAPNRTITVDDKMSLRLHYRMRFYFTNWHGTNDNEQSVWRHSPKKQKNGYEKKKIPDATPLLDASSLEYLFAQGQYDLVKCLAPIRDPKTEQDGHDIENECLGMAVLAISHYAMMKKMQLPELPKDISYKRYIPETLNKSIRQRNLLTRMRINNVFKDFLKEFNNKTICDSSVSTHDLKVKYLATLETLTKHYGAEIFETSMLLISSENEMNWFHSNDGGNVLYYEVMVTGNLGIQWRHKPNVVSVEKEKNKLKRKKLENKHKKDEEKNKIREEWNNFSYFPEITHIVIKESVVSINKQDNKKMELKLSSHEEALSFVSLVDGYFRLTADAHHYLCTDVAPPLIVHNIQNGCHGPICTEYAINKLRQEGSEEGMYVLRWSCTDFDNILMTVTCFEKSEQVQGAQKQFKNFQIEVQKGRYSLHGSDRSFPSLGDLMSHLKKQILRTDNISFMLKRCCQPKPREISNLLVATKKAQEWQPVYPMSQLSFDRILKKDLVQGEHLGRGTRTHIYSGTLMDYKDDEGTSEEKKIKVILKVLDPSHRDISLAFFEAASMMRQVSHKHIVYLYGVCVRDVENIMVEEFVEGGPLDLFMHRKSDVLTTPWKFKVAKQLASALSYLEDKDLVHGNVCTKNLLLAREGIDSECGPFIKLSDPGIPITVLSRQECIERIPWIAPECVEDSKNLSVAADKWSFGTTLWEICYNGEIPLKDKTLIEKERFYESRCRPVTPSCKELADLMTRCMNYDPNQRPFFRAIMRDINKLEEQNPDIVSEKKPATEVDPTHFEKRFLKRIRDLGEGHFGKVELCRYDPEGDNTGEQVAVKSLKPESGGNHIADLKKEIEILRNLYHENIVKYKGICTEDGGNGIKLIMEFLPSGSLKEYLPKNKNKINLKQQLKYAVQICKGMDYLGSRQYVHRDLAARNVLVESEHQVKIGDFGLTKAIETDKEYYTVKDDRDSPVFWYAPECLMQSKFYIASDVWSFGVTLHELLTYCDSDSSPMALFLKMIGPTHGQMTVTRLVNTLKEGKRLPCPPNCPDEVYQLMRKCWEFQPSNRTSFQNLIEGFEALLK

Compound | IC50 (Tyk2) | IC50 (JAK1)
COCC(=O)N1CC(CC#N)(n2cc(-c3ccnc(Nc4cnn(C)c4)n3)cn2)C1 [TDM-180765, 2-(1-(2-methoxyacetyl)-3-(4-(2-((1-methyl-1H-pyrazol-4-yl)amino)pyrimidin-4-yl)-1H-pyrazol-1-yl)azetidin-3-yl)acetonitrile] | 1 to 10 µM | 1 to 10 µM
COCC(=O)N1CC(CC#N)(n2ccc(-c3ccnc(Nc4cnn(C)c4)n3)c2)C1 [TDM-180769, 2-(1-(2-methoxyacetyl)-3-(3-(2-((1-methyl-1H-pyrazol-4-yl)amino)pyrimidin-4-yl)-1H-pyrrol-1-yl)azetidin-3-yl)acetonitrile] | 1 to 10 µM | 1 to 10 µM
Cn1cc(Nc2nccc(-c3ccn(C4(CC#N)CN(C(=O)CO)C4)c3)n2)cn1 [TDM-180786] | 1 to 10 µM | 1 to 10 µM
Cn1cc(Nc2nccc(-c3cnn(C4(CC#N)CN(C(=O)CO)C4)c3)n2)cn1 [TDM-180810, 2-(1-(2-hydroxyacetyl)-3-(4-(2-((1-methyl-1H-pyrazol-4-yl)amino)pyrimidin-4-yl)-1H-pyrazol-1-yl)azetidin-3-yl)acetonitrile] | 1 to 10 µM | 1 to 10 µM
Cn1cc(Nc2nccc(-c3ccn(C4(CC#N)CN(C(=O)C5CC5)C4)n3)n2)cn1 [TDM-180858, 2-(1-(cyclopropanecarbonyl)-3-(3-(2-((1-methy 1-1H-pyrazol-4-yl)amino)pyrimidin-4-yl)-1H-pyrazol-1-yl)azetidinpyridin-3-yl)acetonitrile] | 1 to 10 µM | 1 to 10 µM
Cn1cc(Nc2nccc(-c3ccn(C4(CC#N)CN(C(=O)C5CC5(F)F)C4)n3)n2)cn1 (stereo not drawn) [TDM-180859, 2-(1-(2,2-difluorcyclopropanecarbonyl)-3-(3-(2-((1-methyl-1H-pyrazol-4-yl)amino)pyrimidin-4-yl)-1H-pyrazol-1-yl)azetidin-3-yl)acetonitrile] | 0.1 to 1 µM | 0.1 to 1 µM
Cn1cc(Nc2nccc(-c3ccn(C4(CC#N)CN(C(=O)CC(F)(F)F)C4)n3)n2)cn1 [TDM-180860, 2-(3-(3-(2-((1-methyl-1H-pyrazol-4-yl)amino)pyrimidin-4-yl)-1H-pyrazol-1-yl)-1-(3,3,3-trifluoropropionyl)azetidin-3-yl)acetonitrile] | 0.1 to 1 µM | 0.1 to 1 µM
Cn1cc(Nc2nccc(-c3ccn(C4(CC#N)CN(C(=O)CC#N)C4)n3)n2)cn1 [TDM-180861, 3-(3-(cyanomethyl)-3-(3-(2-((1-methyl-1H-pyrazol-4-yl)amino)pyrimidin-4-yl)-1H-pyrazol-1-yl)azetidinpiperazin-1-yl)-3-oxypropionitrile] | 1 to 10 µM | 1 to 10 µM
Cn1cc(Nc2nccc(-c3ccn(C4(CC#N)CN(S(=O)(=O)CC(F)(F)F)C4)c3)n2)cn1 [TDM-180866, 2-(3-(3-(2-((1-methyl-1H-pyrazol-4-yl)amino)pyrimidin-4-yl)-1H-pyrrol-1-yl)-1-((2,2,2-trifluoroethyl)sulfonyl)azetidin-3-yl)acetonitrile] | < 0.1 µM | < 0.1 µM
Cn1cc(Nc2nccc(-c3ccc(C4(CC#N)CN(C(=O)CC#N)C4)cc3)n2)cn1 [TDM-180871, 3-(3-(cyanomethyl)-3-(4-(2-((1-methyl-1H-pyrazol-4-yl)amino)pyrimidin-4-yl)phenyl)azetidin-1-yl)-3-oxopropionitrile] | 0.1 to 1 µM | 0.1 to 1 µM
Cn1cc(Nc2nccc(-c3ccc(C4(CC#N)CN(C(=O)C5CC5(F)F)C4)cc3)n2)cn1 (stereo not drawn) [TDM-180872, 2-(1-(2,2-difluorocyclo-1-carbonyl)-3-(4-(2-((1-methyl-1H-pyrazol-4-yl)amino)pyrimidin-4-yl)phenyl)azetidin-3-yl)acetonitrile] | 0.1 to 1 µM | 0.1 to 1 µM
Cn1cc(Nc2nccc(-c3ccc(C4(CC#N)CN(C(=O)CC(F)(F)F)C4)cc3)n2)cn1 [TDM-180873, 2-(3-(4-(2-((1-methyl-1H-pyrazol-4-yl)amino)pyrimidin-4-yl)phenyl)-1-(3,3,3-trifluoropropanol)azetidin-3-yl)acetonitrile] | 0.1 to 1 µM | 0.1 to 1 µM
Cn1cc(Nc2nccc(-c3ccc(C4(CC#N)CN(C(=O)C5CC5)C4)cc3)n2)cn1 [TDM-180880, 2-(1-(cyclopropanecarbonyl)-3-(4-(2-((1-methyl-1H-pyrazol-4-yl)amino)pyrimidin-4-yl)phenyl)azetidin-3-yl)acetonitrile] | 1 to 10 µM | 1 to 10 µM
Cn1cc(Nc2nccc(-c3ccn(C4(CC#N)CN(S(=O)(=O)C5CCOCC5)C4)n3)n2)cn1 [TDM-180912, 2-(3-(3-(2-((1-methyl-1H-pyrazol-4-yl)amino)pyrimidin-4-yl)-1H-pyrazol-1-yl)-1-((tetrahydro-2H-pyran-4-yl)sulfonyl)azetidin-3-yl)acetonitrile] | 1 to 10 µM | 0.1 to 1 µM
Cn1cc(Nc2nccc(-c3ccn(C4(CC#N)CN(S(=O)(=O)C5CC5)C4)n3)n2)cn1 [TDM-180915, 2-(1-(cyclopropylsulfonyl)-3-(3-(2-((1-methyl-1H-pyrazol-4-yl)amino)pyrimidin-4-yl)-1H-pyrazol-1-yl)azetidinpyridin-3-yl)acetonitrile] | 0.1 to 1 µM | 0.1 to 1 µM
CCCS(=O)(=O)N1CC(CC#N)(n2ccc(-c3ccnc(Nc4cnn(C)c4)n3)n2)C1 [TDM-180916, 2-(3-(3-(2-((1-methyl-1H-pyrazol-4-yl)amino)pyrimidin-4-yl)-1H-pyrazol-1-yl)-1-(propylsulfonyl)azacyclobutanpyridin-3-yl)acetonitrile] | 1 to 10 µM | 0.1 to 1 µM
Cn1cc(Nc2nccc(-c3ccn(C4(CC#N)CN(S(=O)(=O)CC(F)(F)F)C4)n3)n2)cn1 [TDM-180918, 2-(3-(3-(2-((1-methyl-1H-pyrazol-4-yl)amino)pyrimidin-4-yl)-1H-pyrazol-1-yl)-1-((2,2,2-trifluoroethyl)sulfonyl)azetidin-3-yl)acetonitrile] | 1 to 10 µM | 1 to 10 µM
CCS(=O)(=O)N1CC(CC#N)(n2ccc(-c3ccnc(Nc4cnn(C)c4)n3)n2)C1 [TDM-180922, 2-(1-(ethylsulfonyl)-3-(3-(2-((1-methyl-1H-pyrazol-4-yl)amino)pyrimidin-4-yl)-1H-pyrazol-1-yl)azetidinpyridin-3-yl)acetonitrile] | 0.1 to 1 µM | 0.1 to 1 µM
Cn1cc(Nc2nccc(-c3cnn(C4(CC#N)CN(S(=O)(=O)CCCCl)C4)c3)n2)cn1 [TDM-180925, 2-(1-((3-chloropropyl)sulfonyl)-3-(4-(2-((1-methyl-1H-pyrazol-4-yl)amino)pyrimidin-4-yl)-1H-pyrazol-1-yl)azetidin-3-yl)acetonitrile] | 0.1 to 1 µM | 0.1 to 1 µM
COC(=O)CCS(=O)(=O)N1CC(CC#N)(n2cc(-c3ccnc(Nc4cnn(C)c4)n3)cn2)C1 [TDM-180927, Ethyl methyl-3-((3-(cyanomethyl)-3-(4-(2-((1-methyl-1H-pyrazol-4-yl)amino)pyrimidin-4-yl)-1H-pyrazol-1-yl)azetidineazetidin-1-yl)sulfonyl)propionate] | 0.1 to 1 µM | 0.1 to 1 µM
Cn1cc(Nc2nccc(-c3cnn(C4(CC#N)CN(S(=O)(=O)CC(F)(F)F)C4)c3)n2)cn1 [TDM-180928, 2-(3-(4-(2-((1-methyl-1H-pyrazol-4-yl)amino)pyrimidin-4-yl)-1H-pyrazol-1-yl)-1-((2,2,2-trifluoroethyl)sulfonyl)azetidin-3-yl)acetonitrile] | < 0.1 µM | 0.1 to 1 µM
